The text below walks through data of ChEMBL document CHEMBL5370684, “Small-Molecule Heterocyclic Compounds: Gq-Biased Agonists for the 5-HT2A Receptor in Neuropsychiatric Treatment” (ACS Med Chem Lett, 2023).

Assay [1] has as its target T1, 5-hydroxytryptamine receptor 2A (Homo sapiens, UniProt P28223). In words: Agonist activity at 5-HT2A (unknown origin) expressed in HEK293T cells co-transfected with RLuc-fused Galphaq/GFP2/Gy9/Gbeta3 assessed as Gaq hetero trimeric G protein activation at 0.1 to 10 uM incubated for 30 mins using coelenterazine 400a as a substrate by BRET assay relative to control. The assay is classed as functional, cell-based. As to conditions: filed as agonist, dose 0.1-10 µM. (BRET reads energy transfer from a luciferase to a nearby fluorophore.)

For assay [2], the target named is T1, 5-hydroxytryptamine receptor 2A. The experiment in a line: Agonist activity at RLuc-fused 5-HT2A (unknown origin) expressed in HEK293T cells co-transfected with mVenus-fused beta arrestin-2/GRK2 assessed as beta arrestin-2 recruitment at 0.1 to 10 uM incubated for 30 mins using coelenterazine h as a substrate by BRET assay relative to control. The format is functional, cell-based. As to conditions: dose 0.1-10 µM. A general note: Recruitment of arrestin is a read-out of receptor activation apart from second messengers.

Assay [3] shares this target. The experiment in a line: Displacement of [3H]-LSD form 5-HT2A (unknown origin) expressed in Flp-In-T-Rex-293 membrane by Microbeta scintillation counting analysis. The assay is classed as cell membranes.
The target is the same in assay [4]. The experiment in a line: Agonist activity at 5-HT2A (unknown origin) expressed in HEK293T cells co-transfected with RLuc-fused Galphaq/GFP2/Gy9/Gbeta3 assessed as Gaq hetero trimeric G protein activation incubated for 30 mins using coelenterazine 400a as a substrate by BRET assay. The assay is classed as functional, cell-based.
The target is the same in assay [5]. The experiment in a line: Agonist activity at RLuc-fused 5-HT2A (unknown origin) expressed in HEK293T cells co-transfected with mVenus-fused beta arrestin-2/GRK2 assessed as beta arrestin-2 recruitment incubated for 30 mins using coelenterazine h as a substrate by BRET assay. The format is functional, cell-based.

SMILES strings stand for the structures.

T1 sequence (P28223 whole entry, the tested form may be a part): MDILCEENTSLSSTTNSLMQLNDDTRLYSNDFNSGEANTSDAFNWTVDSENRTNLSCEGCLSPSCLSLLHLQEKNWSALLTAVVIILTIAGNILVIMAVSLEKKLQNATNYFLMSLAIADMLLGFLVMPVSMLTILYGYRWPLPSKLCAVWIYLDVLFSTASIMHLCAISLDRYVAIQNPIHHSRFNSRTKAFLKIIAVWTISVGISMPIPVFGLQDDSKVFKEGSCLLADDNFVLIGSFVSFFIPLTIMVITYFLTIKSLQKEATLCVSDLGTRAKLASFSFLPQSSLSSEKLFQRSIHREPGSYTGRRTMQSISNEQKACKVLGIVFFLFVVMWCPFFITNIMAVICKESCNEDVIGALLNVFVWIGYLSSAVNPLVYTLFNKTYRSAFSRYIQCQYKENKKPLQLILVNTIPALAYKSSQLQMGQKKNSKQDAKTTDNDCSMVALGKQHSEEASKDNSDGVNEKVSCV

A word on the Emax: it is the greatest response seen or fitted, relative to the assay's reference. Turning to `Fc1ccc2[nH]nc(C3=CCCNC3)c2c1`, the maximal response (Emax) in assay [1] worked out at 88.3%; in assay [2] (filed as agonist), 96%.
As to `Clc1ccc2[nH]nc(C3=CCCNC3)c2c1`, the figures for the Emax in assay [1] and in assay [2] (filed as agonist) were 94.8% and 97%, respectively.
For `COc1cccc2[nH]cc(C3=CCCNC3)c12`, the results for the Emax in assay [1] and in assay [2] (filed as agonist) were 96.1% and 51.8%, respectively.
In the case of `Clc1ccc2[nH]cc(C3=CCCNC3)c2c1`, the Emax in assay [1] amounted to 102%; in assay [2] (filed as agonist), 77.3%.
In the case of `CC(C)c1ccc2[nH]cc(C3=CCCNC3)c2c1`, the maximum response (Emax) amounted to 58.8% in assay [1] and 31.4% in assay [2].
Broadly, the Ki is a dissociation constant, usually derived from enzyme kinetics or from competition with a known ligand. A high value points to a looser hold on the target. What is called EC50 is the concentration needed to bring the measured effect to its halfway point. In assay [3], `C1=C(c2c[nH]c3cccc(-c4ccccc4)c23)CNCC1` returned a Ki of 0.014 µM. Moreover, the EC50 in assay [4] turned out to be 0.874 µM; in assay [5], 0.358 µM. In addition, the values for the Emax in assay [1] and in assay [2] were 59.6% and 15.1%, respectively.
Take `Cc1cccc2[nH]cc(C3=CCCNC3)c12`: the values for the Emax in assay [1] and in assay [2] (filed as agonist) were 85.7% and 42%, respectively.
On to `Cc1ccnc2[nH]cc(C3=CCCN(C)C3)c12`, for which the Emax is 68.7% in assay [1] and 38.9% in assay [2].
Turning to `CN1CCC=C(c2c[nH]c3c(Cl)c(F)ccc23)C1`, the Emax in assay [1] came to 89.2%; in assay [2] (filed as agonist), 56.5%.
For `COc1cccc2[nH]cc(C3=CCCN(C)C3)c12`, the maximum response (Emax) in assay [1] was determined as 91%; in assay [2] (filed as agonist), 47.7%.
As to `CN1CCC=C(c2n[nH]c3cc(F)ccc23)C1`, the Emax was 47.1% in assay [1] and 27% in assay [2].
Consider `CN1CCC=C(c2n[nH]c3c(Cl)cc(F)cc23)C1`, for which the Emax in assay [1] amounted to 91.4%; in assay [2] (filed as agonist), 88.5%.
Consider `CN1CCC=C(c2n[nH]c3c(Cl)ccc(F)c23)C1`, for which the values for the Emax in assay [1] and in assay [2] (filed as agonist) were 95.4% and 50.9%, respectively.
For the molecule `COc1ccnc2[nH]cc(C3=CCCN(C)C3)c12`, the Emax in assay [1] amounted to 67.1%; in assay [2], 32.2%.
Consider `Fc1ccc2c(C3=CCCNC3)n[nH]c2c1`, for which the maximum response (Emax) stood at 79.4% in assay [1] and 59.4% in assay [2] (filed as agonist).
Regarding `Fc1ccc(Cl)c2[nH]nc(C3=CCCNC3)c12`, the values for the Emax in assay [1] and in assay [2] (filed as agonist) were 106% and 72.7%, respectively.
Take `COc1cccc2[nH]nc(C3=CCCNC3)c12`: the results for the Emax in assay [1] and in assay [2] (filed as agonist) were 81.7% and 75.9%, respectively.
